{
  "source": "patent US8822754B2",
  "about": "“Ecdysone receptor-based inducible gene expression system” (Intrexon Corporation, priority 2000, dated 2014)",
  "key": {"[1]": {"biological_target": "T1, DmVgRXR + MmRXR (Drosophila melanogaster, UniProt P34021, E282G/G283S/G286V)", "T1 construct": "host or cells: CHO, NIH3T3, 293 or CV1 cells (one cell line per assay)", "T1 sequence (P34021 whole entry E282G/G283S/G286V, the tested form may be a part)": "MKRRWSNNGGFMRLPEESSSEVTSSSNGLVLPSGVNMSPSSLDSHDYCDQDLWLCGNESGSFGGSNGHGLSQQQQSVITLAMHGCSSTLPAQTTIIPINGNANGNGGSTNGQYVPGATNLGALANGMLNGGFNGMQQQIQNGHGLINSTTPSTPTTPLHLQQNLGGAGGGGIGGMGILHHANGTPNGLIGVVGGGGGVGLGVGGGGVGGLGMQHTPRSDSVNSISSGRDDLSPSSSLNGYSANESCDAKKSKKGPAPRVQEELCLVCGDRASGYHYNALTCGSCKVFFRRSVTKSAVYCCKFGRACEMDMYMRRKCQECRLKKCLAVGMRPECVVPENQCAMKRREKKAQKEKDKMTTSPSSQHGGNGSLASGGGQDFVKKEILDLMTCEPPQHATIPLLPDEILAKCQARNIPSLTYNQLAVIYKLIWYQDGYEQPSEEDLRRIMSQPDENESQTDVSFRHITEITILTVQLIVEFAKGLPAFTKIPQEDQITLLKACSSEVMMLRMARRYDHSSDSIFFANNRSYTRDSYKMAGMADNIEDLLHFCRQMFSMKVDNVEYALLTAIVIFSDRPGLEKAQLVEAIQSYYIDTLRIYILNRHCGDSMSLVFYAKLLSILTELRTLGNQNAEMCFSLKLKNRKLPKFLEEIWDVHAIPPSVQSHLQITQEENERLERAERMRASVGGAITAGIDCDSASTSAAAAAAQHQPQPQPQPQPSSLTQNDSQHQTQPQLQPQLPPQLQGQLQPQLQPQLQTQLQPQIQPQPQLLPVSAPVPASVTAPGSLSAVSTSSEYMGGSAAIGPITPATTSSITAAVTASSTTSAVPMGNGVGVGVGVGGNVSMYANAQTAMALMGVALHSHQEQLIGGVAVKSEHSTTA", "T1 sequence (P28700 whole entry, further chain, the tested form may be a part)": "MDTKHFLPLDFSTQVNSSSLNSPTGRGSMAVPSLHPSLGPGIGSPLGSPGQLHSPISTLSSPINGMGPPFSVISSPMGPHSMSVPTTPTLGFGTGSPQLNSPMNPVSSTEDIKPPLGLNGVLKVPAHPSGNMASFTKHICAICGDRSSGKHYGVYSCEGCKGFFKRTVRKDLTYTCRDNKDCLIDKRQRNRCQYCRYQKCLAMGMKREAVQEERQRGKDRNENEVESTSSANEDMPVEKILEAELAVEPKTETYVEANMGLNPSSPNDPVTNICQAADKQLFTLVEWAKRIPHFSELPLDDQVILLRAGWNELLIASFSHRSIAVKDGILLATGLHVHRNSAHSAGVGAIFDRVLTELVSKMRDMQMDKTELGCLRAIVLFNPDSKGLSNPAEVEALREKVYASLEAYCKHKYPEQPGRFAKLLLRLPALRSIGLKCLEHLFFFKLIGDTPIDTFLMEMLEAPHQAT", "experiment": "Transactivation of reporter genes through switch 1.8 in 293 cells", "format": "cell-based", "settings": "switch 1.8 DmVgRXR + MmRXR, pIND(SP1)LacZ", "text": "(§1) This system was purchased from Invitrogen Corp., Carlsbad, Calif. It comprises a Drosophila melanogaster EcR (“DmEcR”) with a modified DNABD fused to VP16AD and placed under the control of a CMV promoter (SEQ ID NO: 60). Full length MmRXR (SEQ ID NO: 53) was placed under the control of the RSV promoter (SEQ ID NO: 61). The reporter, pIND(SP1)LacZ, contains five copies of a modified ecdysone response element (“EcRE”, E/GRE), three copies of an SP1 enhancer, and a minimal heat shock promoter, all of which were placed upstream to the LacZ reporter gene.\n(§2) The same procedures described for CHO were followed for 293 cells except that the cells were plated in biocoated plates to avoid clumping.\n(§3) Cells were harvested 24-48 hr after adding ligands. […] Twenty μl of lysate was assayed."}, "[2]": {"tested_on": "GAL4RXR + VP16CfEcR", "experiment": "Transactivation of reporter genes through switch 1.3 in 293 cells", "format": "cell-based, Choristoneura fumiferana", "settings": "switch 1.3 GAL4RXR + VP16CfEcR, pGAL4RELuc", "procedure": "as §2, §3"}, "[3]": {"biological_target": "T1, DmVgRXR + MmRXR", "experiment": "Transactivation of reporter genes through switch 1.8 in CHO cells", "format": "cell-based", "settings": "switch 1.8 DmVgRXR + MmRXR, pIND(SP1)LacZ", "text": "as §1\n(§4) The cells were harvested and reporter activity was assayed.\nas §3"}, "[4]": {"tested_on": "GAL4EcR + VP16RXR", "experiment": "Transactivation of reporter genes through switch 1.1 in CV1 cells", "format": "cell-based, Choristoneura fumiferana", "settings": "switch 1.1 GAL4EcR + VP16RXR, pGAL4RELuc", "procedure": "(§5) The same procedures described for NIH3T3 cells were followed for CV1 cells\nas §3"}, "[5]": {"biological_target": "T2, GAL4RXR + VP16DmEcR (Drosophila melanogaster, UniProt P34021)", "T2 sequence (P34021 254-878)": "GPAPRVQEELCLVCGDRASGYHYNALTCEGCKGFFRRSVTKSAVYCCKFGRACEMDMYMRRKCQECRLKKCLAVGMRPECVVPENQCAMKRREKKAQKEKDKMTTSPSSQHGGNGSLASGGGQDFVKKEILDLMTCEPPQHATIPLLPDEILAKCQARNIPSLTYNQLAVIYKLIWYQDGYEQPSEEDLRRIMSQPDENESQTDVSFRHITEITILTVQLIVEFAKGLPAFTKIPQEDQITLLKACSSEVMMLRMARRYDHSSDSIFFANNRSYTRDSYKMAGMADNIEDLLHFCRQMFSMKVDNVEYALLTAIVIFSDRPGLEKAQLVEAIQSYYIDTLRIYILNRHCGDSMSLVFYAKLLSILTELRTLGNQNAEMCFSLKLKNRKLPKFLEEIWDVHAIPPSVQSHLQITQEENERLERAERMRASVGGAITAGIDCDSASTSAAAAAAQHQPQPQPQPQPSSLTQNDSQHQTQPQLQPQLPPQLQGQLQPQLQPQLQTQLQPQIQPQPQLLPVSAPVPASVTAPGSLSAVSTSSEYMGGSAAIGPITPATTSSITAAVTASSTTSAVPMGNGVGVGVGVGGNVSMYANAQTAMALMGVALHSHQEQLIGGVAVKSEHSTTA", "T2 sequence (P28700 206-467 partner limits assumed)": "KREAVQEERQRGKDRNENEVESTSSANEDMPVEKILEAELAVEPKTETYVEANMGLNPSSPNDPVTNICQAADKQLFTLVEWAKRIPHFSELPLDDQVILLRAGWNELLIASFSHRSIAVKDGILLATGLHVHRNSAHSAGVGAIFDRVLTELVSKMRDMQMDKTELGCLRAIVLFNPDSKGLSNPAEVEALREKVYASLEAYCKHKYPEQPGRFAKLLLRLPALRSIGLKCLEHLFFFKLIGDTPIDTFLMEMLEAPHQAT", "experiment": "Transactivation of reporter genes through switch 1.4 in CHO cells", "format": "cell-based", "parameters": "expressed in transfected cells; host or cells: CHO cells (transient co-transfection)", "settings": "switch 1.4 GAL4RXR + VP16DmEcR, pGAL4RELuc", "procedure": "This construct was prepared in the same way as switch 1.3 except CfEcRCDEF was replaced with DmEcRCDEF (SEQ ID NO: 6).\nas §4, §3"}, "[6]": {"tested_on": "VP16CfEcR", "experiment": "Transactivation of reporter genes through switch 1.7 in 3T3 cells", "format": "cell-based, Choristoneura fumiferana", "settings": "switch 1.7 VP16CfEcR, pEcRELuc", "procedure": "Six ecdysone response elements (“EcRE”; SEQ ID NO: 59) from the hsp27 gene were placed upstream of the promoter and a luciferase gene (SEQ ID NO: 57). This switch most probably uses endogenous RXR.\n(§6) The cells were plated when they reached 50% confluency.\nas §3"}, "[7]": {"tested_on": "CfVgRXR", "experiment": "Transactivation of reporter genes through switch 1.10 in CHO cells", "format": "cell-based, Choristoneura fumiferana", "settings": "switch 1.10 CfVgRXR, pIND(SP1)LacZ", "procedure": "(§7) This example was prepared in the same way as switch 1.9 except MmRXR (SEQ ID NO: 53) was deleted.\nas §4, §3"}, "[8]": {"tested_on": "GAL4USP + VP16CfEcR", "experiment": "Transactivation of reporter genes through switch 1.5 in 3T3 cells", "format": "cell-based, Choristoneura fumiferana", "settings": "switch 1.5 GAL4USP + VP16CfEcR, pGAL4RELuc", "procedure": "This construct was prepared in the same way as switch 1.3 except MmRXRDEF was replaced with CfUSPDEF (SEQ ID NO: 58).\nas §6, §3"}, "[9]": {"tested_on": "GAL4EcR + VP16RXR", "experiment": "Transactivation of reporter genes through switch 1.1 in CHO cells", "format": "cell-based, Choristoneura fumiferana", "settings": "switch 1.1 GAL4EcR + VP16RXR, pGAL4RELuc", "procedure": "as §4, §3"}, "[10]": {"tested_on": "CfVgRXR", "experiment": "Transactivation of reporter genes through switch 1.10 in CV1 cells", "format": "cell-based, Choristoneura fumiferana", "settings": "switch 1.10 CfVgRXR, pIND(SP1)LacZ", "procedure": "as §7, §5, §3"}, "[11]": {"tested_on": "GAL4EcR + VP16USP", "experiment": "Transactivation of reporter genes through switch 1.2 in 293 cells", "format": "cell-based, Choristoneura fumiferana", "settings": "switch 1.2 GAL4EcR + VP16USP, pGAL4RELuc", "procedure": "This construct was prepared in the same way as in switch 1.1 above except MmRXRDEF was replaced with the D, E and F domains from spruce budworm USP (“CfUSPDEF”; SEQ ID NO: 58). The constructs used in this example are similar to those disclosed in U.S. Pat. No. 5,880,333 except that Choristoneura fumiferana USP rather than Drosophila melanogaster USP was utilized.\nas §2, §3"}},
  "data": [
    {"smiles": "CCc1c(OC)cccc1C(=O)NN(C(=O)c1cc(C)cc(C)c1)C(C)(C)C", "note": "[N-(2-ethyl-3-methoxybenzoyl)-N′-(3,5-dimethylbenzoyl)-N′-tert-butylhydrazine]", "values": [
      {"measurement": "Mean Fold Activation Through N-(2-ethyl-3-methoxybenzoyl)-N′-(3,5-dimethylbenzoyl)-N′-t-butylhydrazine", "setting": "[1]", "result": 21, "unit": "fold"},
      {"measurement": "Mean Fold Activation Through N-(2-ethyl-3-methoxybenzoyl)-N′-(3,5-dimethylbenzoyl)-N′-t-butylhydrazine", "setting": "[2]", "result": 17, "unit": "fold"},
      {"measurement": "Mean Fold Activation with 50 μM N-(2-ethyl-3-methoxybenzoyl)-N′-(3,5-dimethylbenzoyl)-N′-t-butylhydrazine", "setting": "[3]", "result": 14, "unit": "fold"},
      {"measurement": "Mean Fold Activation Through N-(2-ethyl-3-methoxybenzoyl)-N′-(3,5-dimethylbenzoyl)-N′-t-butylhydrazine", "setting": "[4]", "result": 279, "unit": "fold"},
      {"measurement": "Mean Fold Activation with 50 μM N-(2-ethyl-3-methoxybenzoyl)-N′-(3,5-dimethylbenzoyl)-N′-t-butylhydrazine", "setting": "[5]", "result": 312, "unit": "fold"},
      {"measurement": "Mean Fold Activation Through N-(2-ethyl-3-methoxybenzoyl)-N′-(3,5-dimethylbenzoyl)-N′-t-butylhydrazine", "setting": "[6]", "result": 1, "unit": "fold"},
      {"measurement": "Mean Fold Activation with 50 μM N-(2-ethyl-3-methoxybenzoyl)-N′-(3,5-dimethylbenzoyl)-N′-t-butylhydrazine", "setting": "[7]", "result": 29, "unit": "fold"},
      {"measurement": "Mean Fold Activation Through N-(2-ethyl-3-methoxybenzoyl)-N′-(3,5-dimethylbenzoyl)-N′-t-butylhydrazine", "setting": "[8]", "result": 3, "unit": "fold"},
      {"measurement": "Mean Fold Activation with 50 μM N-(2-ethyl-3-methoxybenzoyl)-N′-(3,5-dimethylbenzoyl)-N′-t-butylhydrazine", "setting": "[9]", "result": 267, "unit": "fold"},
      {"measurement": "Mean Fold Activation Through N-(2-ethyl-3-methoxybenzoyl)-N′-(3,5-dimethylbenzoyl)-N′-t-butylhydrazine", "setting": "[10]", "result": 1, "unit": "fold"},
      {"measurement": "Mean Fold Activation Through N-(2-ethyl-3-methoxybenzoyl)-N′-(3,5-dimethylbenzoyl)-N′-t-butylhydrazine", "setting": "[11]", "result": 2, "unit": "fold"}
    ]}
  ]
}
